Data set [1] is described as follows: Metabolic stability in rat hepatocytes. The format is in vitro ADME. Conditions: male, Wistar, 10^6 cells/ml, analysed during 24 h, read-out: T½ (converted). An excerpt:
Hepatocytes from adult male Wistar rats (IFFA Credo, L'Arbresle, France) were isolated by an in situ liver perfusion using collagenase (purchased from Sigma (St. Louis, Mo., U.S.A), according to a procedure described by Seglen (Preparation of isolated rat liver cell, Methods Cell Biol. 13, 29–83, 1976) and modified by Williams et al. (Rat hepatocyte primary culture. III. Improved dissociation and attachment techniques and the enhancement of survival by culture medium, in vitro 13: 809–817, 1977). After estimation of cell viability by the peripheral refractoriness of intact cells in phase contrast microscopy and the trypan blue test, freshly isolated hepatocytes were washed in basal William's medium E (WME) supplemented with 10% (v/v) fetal calf serum, 70 μM cortisol, 2 mM L-glutamine, 10 mM HEPES buffer, and 4 mM NaOH. They were then plated at a density of 0,5×10^6 cells per 50 mm plastic cell culture dishes in the medium described previously for cell attachment for 6 hours at 37° C. Subsequently, hepatocytes were washed three times in serum- and cholesterol-free medium (SF-WME) containing 4 g/l bovine albumin fraction V (Sigma) as transporter for 7.8 μM of a mixture of free fatty acids (Cheesebeuf M and Padieu P, expression of major liver metabolic function in long-term serum-free rat liver epithelial cell lines. In vitro 20: 780–795, 1984), and then were transferred to the SF-WME supplemented with the various tripeptides of formula (I). For each group of experiments, hepatocytes from three or four livers were used.
Significances are calculated using Student's t-test. Values are expressed as mean±SD.
• Method: (Hepatocytes in suspension) • Plasma sample: Precipitation with trichloracetic acid. • Centrifugation and aliquot of supernatant to HPLC. • […] column: Nucleosil C18 (250×4,6 mm). • Buffer TEAP 0,1%/CH3CN, 1 ml/min • Readings at 210 nm. […]
Each substance of each concentration will be analysed 10 times during 24 h (1 h, 2 h, 4 h, 6 h, 8 h, 10 h, 12 h, 16 h, 20 h, 24 h).

For the next data set, the system named is cholinergic nerve ends. Put plainly: Sprouting assay (dendrite length after septum lesion). Conditions: rats, septum of hippocampus destroyed; 20 mg/per kg bodyweight per day over at least 15 days. The format is in vivo, rat. As to the method: The sprouting of nerve cells is determined by the length of the dendrites. According to the present invention, the influence of the substances used according to the present invention on the sprouting is studied in an in vivo assay.
The septum of the hippocampus of 10 rats was destroyed (see Hagg et al; Exp. Neurol., 101, 303–312). 21 days after the impairment of the hippocampus was unambiguous, as confirmed by a behavioural test, the rats were divided into two groups of 5 rats each. 20 mg/per kg bodyweight per day of the substance used according to the present invention (GFPNH2) was administered to the test group of 5 rats over at least 15 days.
After administration, the animals were killed, and the cholinergic nerve ends were observed by a CAT (choline-acetyl-transferase) immunofluorescence assay under a fluorescence microscope. The length of the dendrites was measured thereby.

For data set [2] the following is noted: literature value; cited from earlier work.
[3] abbreviates: freshly isolated rat hepatocytes (in suspension).

≈ marks a conversion by molar mass, not a printed value. Structures can show the parent of a compound that is named as a salt. Where two headings read alike, the source gives them in different places. Residues, ends and D or L forms follow the SMILES beside them.

Take `CC[C@H](C)[C@H](NC(=O)CN(CC)CC)C(=O)N1CCC[C@H]1C(N)=O` [N,N-Diethyl-Gly-Ile-ProNH2]: the half-life in data set [1] (freshly isolated rat hepatocytes) is 2.8 h. In addition, the “predicted absorption after peroral application (PAMPA classification)” value (shortened to “predicted absorption”) (PAMPA) is “medium to highly absorbed”.

Take `NCC(=O)N[C@@H](Cc1ccccc1)C(=O)N1CCC[C@H]1C(N)=O` [HCl-Gly-Phe-ProNH2, glycyl-L-phenylalanyl-L-prolineamide] (H-Gly-Phe-Pro-NH2): the “increase of the dendrite length” value in the data set on cholinergic nerve ends was in the range of 8 to 10 μm. Also, the “predicted absorption” value (PAMPA) is on record as “weakly absorbed”.

Usually solubility stands for the dissolved amount per volume that the medium holds. A low value points to a poorly soluble substance. As for `CC[C@H](C)[C@H](NC(=O)[C@H]([C@@H](C)CC)N(CC)CC)C(=O)N1CCC[C@H]1C(N)=O` [N,N-Diethyl-Ile-Ile-ProNH2, N,N-diethyl-isoleucyl-isoleucyl-prolineamide], the solubility in “physchem” worked out at 1000 µg/mL (≈ 2520 µM). The half-life in data set [1] (setting [3]) is 3.4 h. For the same molecule, the “predicted absorption” value (PAMPA) is recorded as “medium to highly absorbed”.

Turning to `CC[C@H](C)[C@H](NC(C)C)C(=O)N[C@H](C(=O)N1CCC[C@H]1C(N)=O)[C@@H](C)CC` [N-Isopropyl-Ile-Ile-ProNH2], the “predicted absorption” value (PAMPA) is reported as “medium to highly absorbed”.

`CCNC(=O)[C@@H]1CCCN1C(=O)[C@H](Cc1ccccc1)NC(=O)[C@H]([C@@H](C)CC)N(CC)CC` [N,N-Diethyl-Ile-Phe-ProNHEt, N,N-diethyl-isoleucyl-phenylalanyl-L-proline ethylamide]: in the data set “physchem”, the concentration in solution (solubility) was 1000 µg/mL (≈ 2180 µM). Also, the half-life in data set [1] (setting [3]) was 4.5 h. Moreover, under “PAMPA”, the “predicted absorption” value is listed as “medium to highly absorbed”.

As for thyreoliberin [TRH, reference compound], the “predicted absorption” value (classification by flux rate) was “weakly absorbed”.

In the case of `O=c1ccc2ccccc2o1` [Coumarin], in data set [2], the “flux rate published by Kansy et al.” value is given as 66%.

Consider `C[C@]12CCC(=O)C=C1CC[C@@H]1[C@@H]2[C@@H](O)C[C@@]2(C)[C@H]1CC[C@]2(O)C(=O)CO` [Hydrocortisone], for which the “flux rate published by Kansy et al.” value in data set [2] was 52%.

Values taken from patent publication US7122524B2, “Tripeptides and tripeptide derivatives for the treatment of postlesional disease of the nervous system” (Neurotell AG, priority 2002, dated 2006).
